Measurements published in patent US4916065A (priority 1988, dated 1990).
Converted amounts (≈) assume the structure as drawn. Where two headings read alike, the source gives them in different places.

What was measured:
[1] = tested on: Piricularia oryzae D91; test: microbe, parasite or virus in culture; assay type: cell-based
[2] = tested on: Cryptococcus neoformans D49; test: Antifungal MIC, Sabouraud dextrose agar; assay type: cell-based
[3] = tested on: Petriellidium boydii IF08073; test: Antifungal MIC, Sabouraud dextrose agar; assay type: cell-based; settings: Scedosporium boydii
[4] = tested on: Trichophyton mentagrophytes #4329; test: Antifungal MIC, Sabouraud dextrose agar; assay type: cell-based
[5] = tested on: Aspergillus flavus FA21436; test: Antifungal MIC, Sabouraud dextrose agar; assay type: cell-based
[6] = tested on: Cryptococcus neoformans IAM4514; test: Antifungal MIC, Sabouraud dextrose agar; assay type: cell-based
[7] = tested on: Fusarium moniliforme A2284; test: Antifungal MIC, Sabouraud dextrose agar; assay type: cell-based; settings: Fusarium verticillioides
[8] = tested on: Mucor spinosus IF05317; test: Antifungal MIC, Sabouraud dextrose agar; assay type: cell-based
[9] = tested on: Peptostreptococcus anaerobius A21905; test: Antibacterial MIC, serial agar dilution; assay type: cell-based
[10] = tested on: Clostridium perfringens A9635; test: microbe, parasite or virus in culture; assay type: cell-based
[11] = tested on: Bacteroides fragilis A22534; test: Antibacterial MIC, serial agar dilution; assay type: cell-based
[12] = tested on: Propionibacterium acnes A21933; test: Antibacterial MIC, serial agar dilution; assay type: cell-based; settings: Cutibacterium acnes, anaerobic, GAM agar
[13] = tested on: Clostridium difficile A21675; test: Antibacterial MIC, serial agar dilution; assay type: cell-based; settings: Clostridioides difficile, anaerobic, GAM agar, clindamycin-resistant
[14] = tested on: Bacteroides fragilis A22693; test: Antibacterial MIC, serial agar dilution; assay type: cell-based; settings: anaerobic, GAM agar
[15] = tested on: B16-F10; test: In vitro cytotoxicity; assay type: cell-based, murine; settings: Mus musculus, 72 hours, neutral red, 540 nm
[16] = tested on: Klebsiella pneumoniae A20680; test: Antibacterial MIC, serial agar dilution; assay type: cell-based; settings: aerobic, nutrient agar, kanamycin-resistant
[17] = tested on: Enterococcus faecalis A9612; test: Antibacterial MIC, serial agar dilution; assay type: cell-based; settings: aerobic, nutrient agar
[18] = tested on: Canidia albicans IAM4888; test: Antifungal MIC, Sabouraud dextrose agar; assay type: cell-based
[19] = tested on: Canidia albicans A9540; test: Antifungal MIC, Sabouraud dextrose agar; assay type: cell-based
[20] = tested on: Staphylococcus aureus A15097; test: Antibacterial MIC, serial agar dilution; assay type: cell-based; settings: aerobic, nutrient agar, methicillin-resistant
[21] = tested on: Micrococcus luteus 1001; test: Antibacterial MIC, serial agar dilution; assay type: cell-based; settings: aerobic, nutrient agar
[22] = Solubility; assay type: physicochemical; settings: organic solvents such as chloroform, methanol and ethanol
[23] = tested on: P388 leukemia; test: Antitumor activity against P388 leukemia (ip); assay type: in vivo, mice; settings: for Body weight change on day 4 / MST (median survival time) / T/C: QD × 3, ip
[24] = tested on: aerobic and anaerobic bacteria; assay type: cell-based
[25] = tested on: Klebsiella pneumoniae D11; test: Antibacterial MIC, serial agar dilution; assay type: cell-based; settings: aerobic, nutrient agar
[26] = tested on: Escherichia coli NIHJ; test: Antibacterial MIC, serial agar dilution; assay type: cell-based; settings: aerobic, nutrient agar
[27] = tested on: Escherichia coli Juhl; test: Antibacterial MIC, serial agar dilution; assay type: cell-based; settings: aerobic, nutrient agar
[28] = tested on: Escherichia coli A20665; test: Antibacterial MIC, serial agar dilution; assay type: cell-based; settings: aerobic, nutrient agar, kanamycin-resistant
[29] = tested on: Staphylococcus aureus 209P; test: Antibacterial MIC, serial agar dilution; assay type: cell-based; settings: aerobic, nutrient agar
[30] = tested on: Escherichia coli A9624; test: Antibacterial MIC, serial agar dilution; assay type: cell-based; settings: aerobic, nutrient agar, kanamycin-resistant
[31] = tested on: Enterobacter cloacae A9659; test: Antibacterial MIC, serial agar dilution; assay type: cell-based; settings: aerobic, nutrient agar
[32] = tested on: Staphylococcus aureus A20234; test: Antibacterial MIC, serial agar dilution; assay type: cell-based; settings: aerobic, nutrient agar, kanamycin-resistant
[33] = tested on: Trichophyton mentagrophytes D155; test: Antifungal MIC, Sabouraud dextrose agar; assay type: cell-based
[34] = tested on: fungi; test: In vitro antifungal activity, overall spectrum; assay type: cell-based; settings: all organisms tested except Cryptococcus neoformans
[35] = tested on: Staphylococcus aureus Smith; test: Antibacterial MIC, serial agar dilution; assay type: cell-based; settings: aerobic, nutrient agar
[36] = tested on: Serratia marcescens A20222; test: Antibacterial MIC, serial agar dilution; assay type: cell-based; settings: aerobic, nutrient agar
[37] = tested on: Staphylococcus aureus BX1633; test: Antibacterial MIC, serial agar dilution; assay type: cell-based; settings: aerobic, nutrient agar, ampicillin-resistant
[38] = tested on: Moser; test: In vitro cytotoxicity; assay type: cell-based; settings: Homo sapiens; 72 hours, neutral red, 540 nm
[39] = tested on: Staphylococcus epidermidis A22152; test: Antibacterial MIC, serial agar dilution; assay type: cell-based; settings: aerobic, nutrient agar, kanamycin-resistant
[40] = tested on: Pseudomonas aeruginosa A9930; test: Antibacterial MIC, serial agar dilution; assay type: cell-based; settings: aerobic, nutrient agar
[41] = tested on: Escherichia coli A20341-1; test: Antibacterial MIC, serial agar dilution; assay type: cell-based; settings: A203411, aerobic, nutrient agar, ampicillin-resistant
[42] = tested on: Aspergillus fumigatus IAM2034; test: Antifungal MIC, Sabouraud dextrose agar; assay type: cell-based

In the case of `C[C@@H]1[C@H](O)[C@@H](C)/C=C/C=C/C=C/C=C/C=C/C=C/C=C/[C@H](O[C@@H]2O[C@H](C)[C@@H](O)[C@H](N)[C@@H]2O)C[C@@H]2O[C@](O)(C[C@@H](O)C[C@@H](O)[C@H](O)CC[C@@H](O)C[C@@H](O)CC(=O)O[C@H]1C)C[C@H](O)[C@H]2C(=O)O` [Amphotericin B, reference compound], the MIC [1] is reported as 3100 ng/mL (≈ 3.35 µM), the MIC [2] is reported as < 200 ng/mL and the MIC [3] is reported as > 100000 ng/mL. For the same compound, the MIC [4] was 3100 ng/mL (≈ 3.35 µM), the MIC [5] was 3100 ng/mL (≈ 3.35 µM) and the MIC [6] was < 200 ng/mL. For the same compound, the MIC [7] was 12500 ng/mL (≈ 13.5 µM) and the MIC [8] was 800 ng/mL (≈ 0.866 µM).

Work on `CCC[C@@H]1C[C@@H](C(=O)N[C@@H]([C@H]2O[C@H](SC)[C@H](O)[C@@H](O)[C@H]2O)[C@H](C)Cl)N(C)C1` [Clindamycin, reference compound] yielded an MIC ([9]; anaerobic, GAM agar, read-out: MIC) of 400 ng/mL (≈ 0.941 µM), an MIC [10] of 25 ng/mL (≈ 0.0588 µM) and an MIC ([11]; anaerobic, GAM agar, ampicillin-resistant, read-out: MIC) of 800 ng/mL (≈ 1.88 µM). The MIC [12] was 400 ng/mL (≈ 0.941 µM), the MIC [13] was > 100000 ng/mL and the MIC [14] was 50 ng/mL (≈ 0.118 µM).

`COC1=C(C(=O)O)C(C)C23OC24c2cc(OC(C)=O)c5c(c2NC3C#C/C=C\C#CC14)C(=O)c1c(OC(C)=O)ccc(OC(C)=O)c1C5=O` (stereo not shown) [BU-3420T acetate] gave an IC50 [15] of 0.7 ng/mL, an MIC [16] of 13 ng/mL and an MIC [17] of 0.1 ng/mL. For the same compound, the MIC [18] was 400 ng/mL, the MIC [19] was 200 ng/mL and the MIC [20] was 0.0063 ng/mL. For the same compound, the MIC [21] was 0.2 ng/mL, the MIC [2] was 800 ng/mL and the MIC [9] was 25 ng/mL. The MIC [10] was 13 ng/mL, the MIC [4] was 800 ng/mL and the “solubility in organic solvents compared with BU-3420T” value [22] was “much improved solubility”. For the same compound, the “Body weight change on day 4” value ([23]; 0.5 mg/kg/day) was -0.5 g, the “MST (median survival time)” value ([23]; 0.5 mg/kg/day) was 13.5 days and the T/C ([23]; 0.5 mg/kg/day) was 135%. The “Body weight change on day 4” value ([23]; 1.0 mg/kg/day) was -0.8 g, the “MST (median survival time)” value ([23]; 1.0 mg/kg/day) was 11.0 days and the T/C ([23]; 1.0 mg/kg/day) was 110%. For the same compound, the “maximum T/C value” ([23]; P388, ip, QD × 3) was 135%, the “activity against Gram-negative organisms” value ([24]; Gram-negative organisms, versus Gram-positive) was “a little less susceptible” and the “activity against Gram-positive aerobic bacteria” value ([24]; Gram-positive aerobic bacteria) was “intensely potent activity”. The “activity against anaerobic Gram-positive and negative bacteria versus clindamycin” value ([24]; anaerobic bacteria) was “much more active than clindamycin”, the “activity against certain kanamycin- and clindamycin-resistant bacteria” value ([24]; kanamycin- and clindamycin-resistant bacteria) was “susceptible to both compounds” and the MIC [25] was 0.8 ng/mL. The MIC [26] was 6.3 ng/mL, the MIC [27] was 6.3 ng/mL and the MIC [28] was 13 ng/mL. It also gave an MIC [29] of 0.0063 ng/mL, an MIC [11] of 50 ng/mL and an MIC [30] of 6.3 ng/mL. The MIC [31] was 6.3 ng/mL, the MIC [12] was 13 ng/mL and the MIC [5] was 400 ng/mL. The MIC [32] was 0.0063 ng/mL, the MIC [33] was 400 ng/mL and the MIC [6] was 800 ng/mL. For the same compound, the “antifungal activity versus amphotericin B” value [34] was “significantly more potent than amphotericin B”, the MIC [35] was 0.0063 ng/mL and the MIC [36] was 6.3 ng/mL. For the same compound, the MIC [37] was 0.0063 ng/mL, the IC50 [38] was 0.003 ng/mL and the MIC [39] was 0.013 ng/mL. The MIC [7] was < 50 ng/mL, the MIC [40] was 6.3 ng/mL and the MIC [41] was 25 ng/mL. The MIC [42] was < 50 ng/mL and the MIC [8] was 200 ng/mL.
